{"source": "ChEMBL document CHEMBL1134634", "about": "“Rapid enantiomeric quantification of an antiviral nucleoside agent (D,L-FMAU, 2'-fluoro-5-methyl-beta,D,L-arabinofurano-syluracil) by mass spectrometry” (J Med Chem, 2001)", "tested_on": "Hepatitis B virus", "experiment": "Effective concentration against hepatitis B virus", "type": "functional, organism-based", "data": [{"molecule": "Cc1cn([C@@H]2O[C@H](CO)[C@@H](O)[C@@H]2F)c(=O)[nH]c1=O", "note": "[5-METHYL-2'-FLUOROARAURACIL]", "values": [{"measurement": "EC50", "result": 130, "unit": "nM"}]}]}
